The values below come from patent US12559506B2, “Indazole based compounds and associated methods of use” (Arvinas Operations, Inc., priority 2021, dated 2026).

Like-named read-outs stand apart in the source and are kept apart here.

This experiment addresses T1, LRRK2 (endogenous, HiBit tagged) (Homo sapiens, UniProt Q5S007).
T1 construct: endogenous in cells; host or cells: HEK293 cells with HiBit knock-in at the endogenous LRRK2 locus, stably expressing firefly luciferase
In words: Endogenous LRRK2 degradation assay, endogenous gene C-terminally HiBit-tagged in HEK293 cells (Nano-Glo Dual Luciferase). Type of experiment: cell-based. Summed up:
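LRRK2-HiBit quantified via Nano-Glo Dual Luciferase in HEK293 knock-in cells co-expressing firefly luciferase, after 24 h exposure to compound (1 μM final top, 1:3, 11 points). Values normalised to DMSO median per plate and curve-fitted; Alamar Blue viability run alongside.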

Setting [1] is: endogenous HiBit-tagged LRRK2, HEK293 cells, 24 hours, read-out: **Endogenous WT Dmax (%).
Where [2] appears, read: endogenous HiBit-tagged LRRK2, HEK293 cells, 24 hours, read-out: *Endogenous WT DC50.
[3] abbreviates: endogenous HiBit-tagged LRRK2 in HEK293 cells, 24 hours treatment, read-out: **Endogenous WT Dmax (%).
The mark [4] stands for this setting: endogenous HiBit-tagged LRRK2 in HEK293 cells, 24 hours treatment, read-out: *Endogenous WT DC50.
Where [5] appears, read: endogenous HiBit-tagged LRRK2 in HEK293 cells, 24 hours treatment, read-out: Endogenous WT DC50.
Where [6] appears, read: endogenous HiBit-tagged LRRK2 in HEK293 cells, 24 hours treatment, read-out: Endogenous WT Dmax.

T1 sequence (Q5S007 whole entry): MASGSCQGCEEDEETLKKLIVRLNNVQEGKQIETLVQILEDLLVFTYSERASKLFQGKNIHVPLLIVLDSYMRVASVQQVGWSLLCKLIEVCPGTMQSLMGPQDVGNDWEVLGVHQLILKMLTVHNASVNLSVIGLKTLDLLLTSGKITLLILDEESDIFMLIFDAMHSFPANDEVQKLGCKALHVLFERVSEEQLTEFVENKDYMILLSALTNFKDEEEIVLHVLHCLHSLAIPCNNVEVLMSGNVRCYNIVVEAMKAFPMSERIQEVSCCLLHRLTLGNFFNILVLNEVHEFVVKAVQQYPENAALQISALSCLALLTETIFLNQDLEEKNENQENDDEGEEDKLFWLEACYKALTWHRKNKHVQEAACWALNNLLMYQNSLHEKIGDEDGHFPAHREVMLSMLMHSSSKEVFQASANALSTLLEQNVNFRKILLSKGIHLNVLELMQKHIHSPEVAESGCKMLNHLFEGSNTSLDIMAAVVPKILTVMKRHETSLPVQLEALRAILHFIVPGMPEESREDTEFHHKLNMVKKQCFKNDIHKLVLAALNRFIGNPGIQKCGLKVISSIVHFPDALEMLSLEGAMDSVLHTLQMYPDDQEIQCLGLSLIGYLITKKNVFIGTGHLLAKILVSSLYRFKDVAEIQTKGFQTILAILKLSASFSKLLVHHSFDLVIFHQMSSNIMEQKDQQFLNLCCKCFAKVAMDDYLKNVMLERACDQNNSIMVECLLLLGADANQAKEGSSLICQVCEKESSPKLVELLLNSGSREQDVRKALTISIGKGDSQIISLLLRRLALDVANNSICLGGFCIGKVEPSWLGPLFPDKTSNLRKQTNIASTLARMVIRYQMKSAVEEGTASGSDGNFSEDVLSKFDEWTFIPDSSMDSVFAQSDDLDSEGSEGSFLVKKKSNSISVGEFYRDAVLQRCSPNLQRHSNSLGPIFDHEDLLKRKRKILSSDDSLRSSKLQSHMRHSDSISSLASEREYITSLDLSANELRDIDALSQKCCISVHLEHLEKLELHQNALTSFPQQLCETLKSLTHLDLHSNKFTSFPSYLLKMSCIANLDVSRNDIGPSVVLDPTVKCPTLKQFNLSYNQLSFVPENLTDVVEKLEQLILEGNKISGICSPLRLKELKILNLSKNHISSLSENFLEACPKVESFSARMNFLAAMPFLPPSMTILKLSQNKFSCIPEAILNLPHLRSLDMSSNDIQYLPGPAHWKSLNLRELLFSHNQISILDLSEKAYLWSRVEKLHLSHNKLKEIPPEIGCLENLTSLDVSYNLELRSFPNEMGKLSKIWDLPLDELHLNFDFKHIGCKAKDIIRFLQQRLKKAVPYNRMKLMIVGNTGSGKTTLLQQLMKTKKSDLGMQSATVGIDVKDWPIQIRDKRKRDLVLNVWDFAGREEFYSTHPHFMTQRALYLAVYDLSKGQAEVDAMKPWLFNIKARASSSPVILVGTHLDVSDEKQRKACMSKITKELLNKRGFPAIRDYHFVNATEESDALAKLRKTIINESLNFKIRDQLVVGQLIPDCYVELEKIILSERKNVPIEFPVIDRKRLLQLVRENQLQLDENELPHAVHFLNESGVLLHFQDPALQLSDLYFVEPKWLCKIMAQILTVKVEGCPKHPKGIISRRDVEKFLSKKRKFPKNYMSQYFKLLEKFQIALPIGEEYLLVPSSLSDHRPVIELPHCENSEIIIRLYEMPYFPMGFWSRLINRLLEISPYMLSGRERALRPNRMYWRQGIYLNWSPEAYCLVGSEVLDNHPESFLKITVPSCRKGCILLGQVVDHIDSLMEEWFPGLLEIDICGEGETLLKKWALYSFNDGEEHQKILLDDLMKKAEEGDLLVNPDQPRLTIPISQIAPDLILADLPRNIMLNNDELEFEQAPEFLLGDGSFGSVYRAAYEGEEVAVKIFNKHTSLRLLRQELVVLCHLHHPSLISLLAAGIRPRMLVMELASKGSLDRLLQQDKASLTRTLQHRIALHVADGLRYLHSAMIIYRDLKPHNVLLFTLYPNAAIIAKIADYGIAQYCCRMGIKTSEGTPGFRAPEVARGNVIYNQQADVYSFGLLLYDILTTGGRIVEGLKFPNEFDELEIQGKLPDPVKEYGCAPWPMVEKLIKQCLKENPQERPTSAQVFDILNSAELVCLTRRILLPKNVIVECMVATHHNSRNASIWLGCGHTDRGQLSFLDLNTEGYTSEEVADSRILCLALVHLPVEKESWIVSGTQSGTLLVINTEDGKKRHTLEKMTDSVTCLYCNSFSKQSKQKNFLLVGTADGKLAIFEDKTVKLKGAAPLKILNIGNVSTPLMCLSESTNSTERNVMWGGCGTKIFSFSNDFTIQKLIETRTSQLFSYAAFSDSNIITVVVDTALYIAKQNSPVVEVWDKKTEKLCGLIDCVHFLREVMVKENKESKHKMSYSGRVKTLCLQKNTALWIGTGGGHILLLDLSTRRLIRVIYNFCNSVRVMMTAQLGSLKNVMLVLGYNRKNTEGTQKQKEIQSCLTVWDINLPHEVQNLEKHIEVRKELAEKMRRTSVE

On to `CC1(Oc2ccc3[nH]nc(-c4cc(N5CCC(CN6CCN(CC7CCN(c8cc9c(cc8F)C(=O)N(C8CCC(=O)NC8=O)C9)CC7)CC6)CC5)ncn4)c3c2)CC1` (centres unmarked) [Compound 180, 3-[6-fluoro-5-[4-[[4-[[1-[6-[5-(1-methylcyclopropoxy)-1H-indazol-3-yl]pyrimidin-4-yl]-4-piperidyl]methyl]piperazin-1-yl]methyl]-1-piperidyl]-1-oxo-isoindolin-2-yl]piperidine-2,6-dione], for which the Dmax under setting [1] is not below 70%. Besides, under setting [2], the 50% degradation concentration (DC50) was less than 10 nM.

As to `COc1c(N2CCC(CN3CCN(CC4CCN(c5cc(-c6n[nH]c7ccc(OC8(C)CC8)cc67)ncn5)CC4)C[C@H]3C)CC2)ccc2c1CN(C1CCC(=O)NC1=O)C2=O` (stereo partly drawn) [Compound 285, 3-[4-methoxy-5-(4-{[(2R)-2-methyl-4-[(1-{6-[5-(1-methylcyclopropoxy)-1H-indazol-3-yl]pyrimidin-4-yl}piperidin-4-yl)methyl]piperazin-1-yl]methyl}piperidin-1-yl)-1-oxo-2,3-dihydro-1H-isoindol-2-yl]piperidine-2,6-dione], the Dmax under setting [3] was not below 70%. Further, under setting [4], the 50% degradation concentration (DC50) was less than 10 nM.

For `CC1(Oc2ccc3[nH]nc(-c4cc(N5CCC(CN6CCC(F)(CC7CCN(c8c(F)cc9c(c8F)CN(C8CCC(=O)NC8=O)C9=O)CC7)CC6)CC5)ncn4)c3c2)CC1` (centres unmarked) [Compound 242, 3-{4,6-difluoro-5-[4-({4-fluoro-1-[(1-{6-[5-(1-methylcyclopropoxy)-1H-indazol-3-yl]pyrimidin-4-yl}piperidin-4-yl)methyl]piperidin-4-yl}methyl)piperidin-1-yl]-1-oxo-2,3-dihydro-1H-isoindol-2-yl}piperidine-2,6-dione], under setting [5], the DC50 is less than 10 nM. The Dmax under setting [6] is 50 to 70%.

As for `CC1(Oc2ccc3[nH]nc(-c4cc(N5CCC(CN6CCC(F)(CN7CCN(c8c(F)cc9c(c8F)CN(C8CCC(=O)NC8=O)C9=O)CC7)CC6)CC5)ncn4)c3c2)CC1` (centres unmarked) [Compound 373, 3-{4,6-difluoro-5-[4-({4-fluoro-1-[(1-{6-[5-(1-methylcyclopropoxy)-1H-indazol-3-yl]pyrimidin-4-yl}piperidin-4-yl)methyl]piperidin-4-yl}methyl)piperazin-1-yl]-1-oxo-2,3-dihydro-1H-isoindol-2-yl}piperidine-2,6-dione], the DC50 under setting [5] was less than 10 nM. Also, the Dmax under setting [6] was not below 70%.

For the compound `COc1c(N2CCC(CN3CCC(F)(CN4CCN(c5cc(-c6n[nH]c7ccc(OC8(C)CC8)cc67)ncn5)CC4)CC3)CC2)ccc2c1CN(C1CCC(=O)NC1=O)C2=O` (centres unmarked) [Compound 212, 3-[5-[4-[[4-fluoro-4-[[4-[6-[5-(1-methylcyclopropoxy)-1H-indazol-3-yl]pyrimidin-4-yl]piperazin-1-yl]methyl]-1-piperidyl]methyl]-1-piperidyl]-4-methoxy-1-oxo-isoindolin-2-yl]piperidine-2,6-dione], the half-maximal degradation concentration (DC50) under setting [5] was less than 10 nM. The Dmax under setting [6] is 50 to 70%.

Turning to `C[C@H]1CN(C[C@H]2CC[C@H](OC3CCN(c4cc(-c5n[nH]c6ccc(OC7(C)CC7)cc56)ncn4)CC3)CC2)CCN1c1ccc2c(c1F)CN(C1CCC(=O)NC1=O)C2=O` (stereo partly drawn) [Compound 353, 3-{4-fluoro-5-[(2S)-2-methyl-4-{[(1r,4r)-4-[(1-{6-[5-(1-methylcyclopropoxy)-1H-indazol-3-yl]pyrimidin-4-yl}piperidin-4-yl)oxy]cyclohexyl]methyl}piperazin-1-yl]-1-oxo-2,3-dihydro-1H-isoindol-2-yl}piperidine-2,6-dione], the greatest degradation seen (Dmax) under setting [3] is 50 to 70%. In addition, under setting [4], the DC50 is less than 10 nM.

Take `COc1c(N2CCC(CN3CCN(CC4CCN(c5cc(-c6n[nH]c7ccc(OC8(C)CC8)cc67)ncn5)CC4)C[C@@H]3C)CC2)ccc2c1CN(C1CCC(=O)NC1=O)C2=O` (stereo partly drawn) [Compound 264, 3-[4-methoxy-5-(4-{[(2S)-2-methyl-4-[(1-{6-[5-(1-methylcyclopropoxy)-1H-indazol-3-yl]pyrimidin-4-yl}piperidin-4-yl)methyl]piperazin-1-yl]methyl}piperidin-1-yl)-1-oxo-2,3-dihydro-1H-isoindol-2-yl]piperidine-2,6-dione]: the Dmax under setting [3] is not below 70%. In addition, the half-maximal degradation concentration (DC50) under setting [4] was less than 10 nM.

In the case of `COc1c(N2CCN(C[C@H]3CO[C@H](CN4CCN(c5cc(-c6n[nH]c7cnc(OC8(C)CC8)cc67)ncn5)CC4)CO3)CC2)ccc2c1CN(C1CCC(=O)NC1=O)C2=O` (some centres unmarked) [Compound 302, 3-[4-methoxy-5-(4-{[(2s,5r)-5-[(4-{6-[5-(1-methylcyclopropoxy)-1H-pyrazolo[3,4-c]pyridin-3-yl]pyrimidin-4-yl}piperazin-1-yl)methyl]-1,4-dioxan-2-yl]methyl}piperazin-1-yl)-1-oxo-2,3-dihydro-1H-isoindol-2-yl]piperidine-2,6-dione], under setting [3], the Dmax was in the range of 50 to 70%. For the same compound, the half-maximal degradation concentration (DC50) under setting [4] was less than 10 nM.

Take `C[C@H]1CN(CC2CCN(c3cc(-c4n[nH]c5ccc(OC6(C)CC6)cc45)ncn3)CC2)CCN1CC1CCN(c2ccc3c(c2F)CN(C2CCC(=O)NC2=O)C3=O)CC1` (stereo partly drawn) [Compound 222, 3-[4-fluoro-5-(4-{[(2S)-2-methyl-4-[(1-{6-[5-(1-methylcyclopropoxy)-1H-indazol-3-yl]pyrimidin-4-yl}piperidin-4-yl)methyl]piperazin-1-yl]methyl}piperidin-1-yl)-1-oxo-2,3-dihydro-1H-isoindol-2-yl]piperidine-2,6-dione]: the half-maximal degradation concentration (DC50) under setting [5] was less than 10 nM. In addition, the Dmax under setting [6] was not below 70%.

For `CC1(Oc2cc3c(-c4cc(N5CCC(CN6CCN(CC7CCN(c8ccc9c(c8F)CN(C8CCC(=O)NC8=O)C9=O)CC7)C(C)(C)C6)CC5)ncn4)n[nH]c3cc2F)CC1` (centres unmarked) [Compound 275, 3-{4-fluoro-5-[4-({4-[(1-{6-[6-fluoro-5-(1-methylcyclopropoxy)-1H-indazol-3-yl]pyrimidin-4-yl}piperidin-4-yl)methyl]-2,2-dimethylpiperazin-1-yl}methyl)piperidin-1-yl]-1-oxo-2,3-dihydro-1H-isoindol-2-yl}piperidine-2,6-dione], the Dmax under setting [3] was 50 to 70%. Also, the DC50 under setting [4] was less than 10 nM.

For the compound `CC1(Oc2ccc3[nH]nc(-c4cc(N5CC[C@H](CN6CCN(CC7CCN(c8ccc9c(c8F)CN(C8CCC(=O)NC8=O)C9=O)CC7)CC6)C5)ncn4)c3c2)CC1` (stereo partly drawn) [Compound 295, 3-(4-fluoro-5-{4-[(4-{[(3R)-1-{6-[5-(1-methylcyclopropoxy)-1H-indazol-3-yl]pyrimidin-4-yl}pyrrolidin-3-yl]methyl}piperazin-1-yl)methyl]piperidin-1-yl}-1-oxo-2,3-dihydro-1H-isoindol-2-yl)piperidine-2,6-dione], the Dmax under setting [3] lay within 50 to 70%. Moreover, the DC50 under setting [4] is less than 10 nM.

In the case of `CC1(Oc2cc3c(-c4cc(N5CCC(O[C@H]6CC[C@H](CN7CCN(c8ccc9c(c8F)CN(C8CCC(=O)NC8=O)C9=O)CC7)CC6)CC5)ncn4)n[nH]c3cc2F)CC1` (some centres unmarked) [Compound 259, 3-[4-fluoro-1-oxo-5-(4-{[(1r,4r)-4-[(1-{6-[6-fluoro-5-(1-methylcyclopropoxy)-1H-indazol-3-yl]pyrimidin-4-yl}piperidin-4-yl)oxy]cyclohexyl]methyl}piperazin-1-yl)-2,3-dihydro-1H-isoindol-2-yl]piperidine-2,6-dione], the Dmax under setting [3] lay in the range of 50 to 70%. For the same compound, the DC50 under setting [4] is less than 10 nM.

As for `CC1(Oc2ccc3[nH]nc(-c4cc(N5CCC(CN6CCN(C(C)(C)C7CCN(c8ccc9c(c8F)CN(C8CCC(=O)NC8=O)C9=O)CC7)CC6)CC5)ncn4)c3c2)CC1` (centres unmarked) [Compound 309, 3-{4-fluoro-5-[4-(2-{4-[(1-{6-[5-(1-methylcyclopropoxy)-1H-indazol-3-yl]pyrimidin-4-yl}piperidin-4-yl)methyl]piperazin-1-yl}propan-2-yl)piperidin-1-yl]-1-oxo-2,3-dihydro-1H-isoindol-2-yl}piperidine-2,6-dione], the Dmax under setting [3] is not below 70%. In addition, the half-maximal degradation concentration (DC50) under setting [4] is less than 10 nM.

Take `CC1(Oc2ccc3[nH]nc(-c4cc(N5CCC(CN6CCC(F)(CN7CCN(c8cc9c(cc8F)C(=O)N(C8CCC(=O)NC8=O)C9)CC7)CC6)CC5)ncn4)c3c2)CC1` (centres unmarked) [Compound 188, 3-[6-fluoro-5-[4-[[4-fluoro-1-[[1-[6-[5-(1-methylcyclopropoxy)-1H-indazol-3-yl]pyrimidin-4-yl]-4-piperidyl]methyl]-4-piperidyl]methyl]piperazin-1-yl]-1-oxo-isoindolin-2-yl]piperidine-2,6-dione]: under setting [1], the Dmax was not below 70%. The DC50 under setting [2] was less than 10 nM.

In the case of `CC1(Oc2ccc3[nH]nc(-c4cc(N5CCC(CN6CCC7(CN(c8ccc9c(c8F)CN(C8CCC(=O)NC8=O)C9=O)C7)C(F)(F)C6)CC5)ncn4)c3c2)CC1` (centres unmarked) [Compound 350, 3-(5-{5,5-difluoro-7-[(1-{6-[5-(1-methylcyclopropoxy)-1H-indazol-3-yl]pyrimidin-4-yl}piperidin-4-yl)methyl]-2,7-diazaspiro[3.5]nonan-2-yl}-4-fluoro-1-oxo-2,3-dihydro-1H-isoindol-2-yl)piperidine-2,6-dione], the Dmax under setting [3] fell in the range of 50 to 70%. Moreover, the DC50 under setting [4] is less than 10 nM.

In the case of `C[C@@H]1CN(CC2CCN(c3cc(-c4n[nH]c5ccc(OC6(C)CC6)cc45)ncn3)CC2)C[C@H](C)N1CC1CCN(c2ccc3c(c2F)CN(C2CCC(=O)NC2=O)C3=O)CC1` (stereo partly drawn) [Compound 307, 3-[5-(4-{[(2R,6S)-2,6-dimethyl-4-[(1-{6-[5-(1-methylcyclopropoxy)-1H-indazol-3-yl]pyrimidin-4-yl}piperidin-4-yl)methyl]piperazin-1-yl]methyl}piperidin-1-yl)-4-fluoro-1-oxo-2,3-dihydro-1H-isoindol-2-yl]piperidine-2,6-dione], under setting [3], the greatest degradation seen (Dmax) fell in the range of 50 to 70%. Further, the half-maximal degradation concentration (DC50) under setting [4] was less than 10 nM.
